Assay: xn = mol fraction of the nth substance listed
Conditions: Liquid; for speed of sound: Frequency=3 MHz, Pulse-echo method; for mass density: Vibrating tube method

CCOC(F)(C(F)(F)C(F)(F)C(F)(F)F)C(F)(C(F)(F)F)C(F)(F)F (stereo not given) [2-trifluoromethyl-3-ethoxydodecafluorohexane] + CC(C)OC(C)C
Conditions | mass density, x1 = 0.25 [kg/m3] | mass density, x1 = 0.375 [kg/m3] | mass density, x1 = 0.5 [kg/m3] | mass density, x1 = 0.625 [kg/m3] | mass density, x1 = 0.75 [kg/m3] | speed of sound, x1 = 0.25 [m/s] | speed of sound, x1 = 0.375 [m/s] | speed of sound, x1 = 0.5 [m/s] | speed of sound, x1 = 0.625 [m/s] | speed of sound, x1 = 0.75 [m/s]
293.15 K, 100 kPa | 1053.2 | 1178.3 | 1289.5 | 1391.2 | 1478.4 | 802 | 756.1 | 719.2 | 701.5 | 686.9
293.15 K, 10000 kPa | 1071 | 1197.9 | 1310.6 | 1413.6 | 1501.4 | – | – | – | – | –
293.15 K, 20000 kPa | 1086.1 | 1214.9 | 1328.9 | 1432.8 | 1521.4 | 930.1 | 879 | 839 | 818.1 | 799.8
293.15 K, 30000 kPa | 1099.4 | 1229.8 | 1344.9 | 1449.9 | 1539 | – | – | – | – | –
293.15 K, 40000 kPa | 1111.2 | 1243.1 | 1359.3 | 1465.1 | 1554.8 | 1029.9 | 975.3 | 933 | 909.4 | 888.3
293.15 K, 50000 kPa | 1122.1 | 1255.2 | 1372.4 | 1479 | 1569.2 | – | – | – | – | –
293.15 K, 60000 kPa | 1132.1 | 1266.3 | 1384.4 | 1491.7 | 1582.4 | 1113.8 | 1056.9 | 1012.2 | 988 | 963.7
293.15 K, 70000 kPa | 1141.5 | 1276.8 | 1395.6 | 1503.7 | 1594.8 | – | – | – | – | –
293.15 K, 80000 kPa | 1150.2 | 1286.4 | 1406.1 | 1514.7 | 1606.3 | 1187.2 | 1127.9 | 1081.1 | 1056.3 | 1029.1
293.15 K, 90000 kPa | 1158.4 | 1295.5 | 1416 | 1525.1 | 1617.1 | – | – | – | – | –
293.15 K, 100000 kPa | 1166.2 | 1304.3 | 1425.3 | 1535 | 1627.3 | 1254 | 1190.8 | 1143 | 1116.9 | 1088.5
293.15 K, 110000 kPa | 1173.5 | 1312.4 | 1434.1 | 1544.3 | 1637.1 | – | – | – | – | –
293.15 K, 120000 kPa | 1180.7 | 1320.3 | 1442.6 | 1553.2 | 1646.4 | – | – | – | – | –
293.15 K, 130000 kPa | 1187.4 | 1327.8 | 1450.7 | 1561.8 | 1655.3 | – | – | – | – | –
293.15 K, 140000 kPa | 1193.8 | 1335.1 | 1458.3 | 1569.9 | 1663.8 | – | – | – | – | –
303.15 K, 100 kPa | 1038.3 | 1161.8 | 1271.6 | 1372.4 | 1458.7 | 763.8 | – | 687.9 | 670.9 | 656
303.15 K, 10000 kPa | 1057.2 | 1183 | 1294.5 | 1396.6 | 1483.7 | – | – | – | – | –
303.15 K, 20000 kPa | 1073.6 | – | – | – | – | 898.1 | 848.7 | 812.7 | 793.7 | 773.5

From the NIST ThermoML archive (doi:10.1016/j.jct.2018.08.005)
